# Entries after “also recorded” stand apart in the source; their conditions may differ.
# System: HL-1 cardiomyocytes
# Assay: In vitro hypoxia assay of HL-1 cardiomyocytes, live/dead
# Assay type: cell-based
# Protocol: To examine potential functional roles of these candidates, particularly on cellular apoptosis, the study next used an in vitro hypoxia assay of HL-1 CMs, in which cells were exposed to low oxygen (1%02) for 6 hours prior to treatment with recombinant forms of these proteins.
# HL-1 cardiomyocytes (Sigma, cat. SCC065) were maintained in growth media consisting of 10% FBS in Claycomb Media (Sigma, cat. 51800C) supplemented with 10 mM norepinephrine (Sigma, cat. A0937) and […] L-glutamine (Gibco, cat. 25030081). Primary cardiac fibroblasts were isolated from Col1a1GFP/+ mice 2 months of age. Mice were injected with heparin prior to sacrifice and the heart collected. The tissue was then cut into 1-2 mm pieces and digested with Liberase Blendzyme TH and TM (Roche, cat. LIBTM-RO) in Hank's Balanced Salt Solution (HBSS) (Gibco, cat. 1417507) supplemented with DNAse I and polaxamer (10 mg/ml, Sigma, cat. 16758) in 37° C. for 1 h. […]
# Fluorescent images were acquired with Leica fluorescence inverted microscope DMI6000B equipped with an EL6000 light source. […] Image quantification was performed using Imager s “threshold” and “analyze particles” functions. Assessment of live/dead was determined as the number of DAPI+ cells/HPF. EdU and pHH3 quantification were recorded as the number of EdU+ or pHH3+ nuclei over the total number of DAPI.
substance,measurement,setting,value
"thymosin β4: Thymosin family protein Tmsb4x, recombinant form; human reference NP_066932 in Table 1",number of DAPI+ (dead) cells per field,1% O2 for 6 hours prior to treatment with recombinant protein,reduced; also recorded: protective role
same,cellular viability / toxicity,high doses (500 nM),cellular toxicity
